Earlier results on one compound are cited in patent publication US10647727B2, “Substituted pyrazolo/imidazolo bicyclic compounds as PDE2 inhibitors” (Merck Sharp & Dohme Corp., priority 2015, dated 2020).

The conditions of this series: reported in Brandon et al. 2007; cited from earlier work.

Turning to `COc1ccc(Cc2nn3c([C@@H](CCCc4ccccc4)[C@@H](C)O)nc(C)c3c(=O)[nH]2)cc1OC` [Bay 60-7550], the brain penetration result is listed as “limited”.
